For data set [1], the target named is Procathepsin L (Homo sapiens) (UniProt P07711). Briefly: Inhibition of human cathepsin L by fluorescence assay.
A short description of data set [2]: Oral bioavailability in Wistar rat at 10 mg/kg. It is filed as ADME, organism-based. Conditions: in vivo.
Data set [3] can be described thus: Volume of distribution at steady state in Wistar rat at 2 mg/kg, iv and 10 mg/kg, po. It is filed as ADME, organism-based. Conditions: in vivo, read-out: Vdss.
Data set [4] deals with Cathepsin S (Mus musculus, UniProt O70370). Briefly: Inhibition of mouse cathepsin S by fluorescence assay.
Another data set deals with T1, Cathepsin K (Homo sapiens, UniProt P43235).
T1 sequence (P43235 whole entry): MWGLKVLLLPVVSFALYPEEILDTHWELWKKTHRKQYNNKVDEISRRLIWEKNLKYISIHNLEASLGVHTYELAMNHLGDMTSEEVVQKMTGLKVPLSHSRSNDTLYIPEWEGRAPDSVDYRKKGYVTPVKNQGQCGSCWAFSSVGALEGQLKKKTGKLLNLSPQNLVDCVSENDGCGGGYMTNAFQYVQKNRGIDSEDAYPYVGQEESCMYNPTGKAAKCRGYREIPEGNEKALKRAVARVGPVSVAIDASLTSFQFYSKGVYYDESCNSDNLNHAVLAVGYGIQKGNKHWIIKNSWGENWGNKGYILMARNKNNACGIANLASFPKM
Briefly: Inhibition of human cathepsin K by fluorescence assay.

Data set [5] concerns the target Cathepsin B (Homo sapiens) (UniProt P07858). Put plainly: Inhibition of human cathepsin B by fluorescence assay.
Data set [6] deals with T2, Cathepsin S (Homo sapiens, UniProt P25774). Briefly: Inhibition of cathepsin S-mediated proteolytic cleavage of MHC2 associated invariant chain in human JY cells assessed as accumulation of lip10 by Western blot analysis. It is filed as cell-based. In general terms: A western blot detects proteins with antibodies after separation by electrophoresis.
Data set [7] in a line: Plasma clearance in Wistar rat at 2 mg/kg, iv and 10 mg/kg, po. It counts as ADME, organism-based.
Data set [8] has as its target T2, Cathepsin S. Put plainly: Inhibition of human cathepsin S by fluorescence assay.
Data set [9] can be described thus: Chemical stability of the compound assessed as half life at 1.24 mM at pH 7.5 by nitrile war-head stability assay in presence of GSH. It is filed as physicochemical.
A short description of data set [10]: Chemical stability of the compound assessed as half life at 1.15 mM at pH 7.5 by nitrile war-head stability assay in presence of GSH. It is filed as physicochemical.

Calls of active or inactive are those of the source.

Procathepsin L (Homo sapiens), sequence (P07711 114-333 limits assumed): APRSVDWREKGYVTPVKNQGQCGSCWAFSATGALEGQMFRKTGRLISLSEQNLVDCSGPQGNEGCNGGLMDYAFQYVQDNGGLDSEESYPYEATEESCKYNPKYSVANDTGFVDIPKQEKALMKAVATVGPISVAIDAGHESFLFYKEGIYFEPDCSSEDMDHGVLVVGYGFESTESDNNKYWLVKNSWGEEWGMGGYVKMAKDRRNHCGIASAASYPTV
T2 sequence (P25774 whole entry): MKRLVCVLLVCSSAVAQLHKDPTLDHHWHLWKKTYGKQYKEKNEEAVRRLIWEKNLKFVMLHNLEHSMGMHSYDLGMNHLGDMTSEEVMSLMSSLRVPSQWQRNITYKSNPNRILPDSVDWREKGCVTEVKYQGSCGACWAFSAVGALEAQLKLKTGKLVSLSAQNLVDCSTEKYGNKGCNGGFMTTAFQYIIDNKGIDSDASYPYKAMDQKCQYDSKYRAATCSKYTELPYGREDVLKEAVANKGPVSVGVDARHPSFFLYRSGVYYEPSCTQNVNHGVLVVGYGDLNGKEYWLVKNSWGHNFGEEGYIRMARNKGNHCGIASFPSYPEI
Cathepsin S (Mus musculus, UniProt O70370), sequence (O70370 whole entry): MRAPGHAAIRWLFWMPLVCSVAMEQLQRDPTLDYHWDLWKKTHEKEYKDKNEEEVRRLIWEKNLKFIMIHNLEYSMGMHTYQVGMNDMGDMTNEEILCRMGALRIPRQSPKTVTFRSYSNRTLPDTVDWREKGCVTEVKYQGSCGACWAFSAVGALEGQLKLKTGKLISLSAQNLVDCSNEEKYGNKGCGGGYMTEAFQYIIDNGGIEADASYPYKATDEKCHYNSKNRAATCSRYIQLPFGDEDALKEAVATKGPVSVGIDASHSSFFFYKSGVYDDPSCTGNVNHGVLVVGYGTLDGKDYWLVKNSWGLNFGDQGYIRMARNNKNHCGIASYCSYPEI

With `Cn1cnc2c(C#N)nc(-c3ccc(OCc4ccccn4)c(C(F)(F)F)c3)cc21`, the inhibition entry in data set [1] and in data set [5] was “inactive” each time. For the same molecule, the bioavailability (as a rule, the share of a dose that reaches the circulation, judged against a reference dose that is usually intravenous) in data set [2] stood at 54%. The Vd in [3] is 0.7 L/kg. Moreover, the IC50 – broadly, the midpoint of a concentration-inhibition curve – against Cathepsin S [4] came to 2.5 nM; on Cathepsin K, 2290 nM; at Cathepsin S [6], 853 nM; at Cathepsin S [8] it was 20 nM. In [7], this molecule had a clearance of 327 mL/min/kg.
With `Cn1cnc2c(C#N)nc(-c3ccc(OC4CCNCC4)c(C(F)(F)F)c3)cc21`, the inhibition entry in data set [1] and in data set [5] was “inactive” in each case. For the same molecule, the IC50 at Cathepsin K was 891 nM; against Cathepsin S [8] it was 316 nM.
On to `N#Cc1nc(-c2ccc(OCc3ccccc3)c(C(F)(F)F)c2)cc2[nH]cnc12`, for which the inhibition entry in [1] and in [5] was “inactive” throughout. The values for the half-maximal inhibitory concentration (IC50) against Cathepsin K and against Cathepsin S [8] were more than 10000 nM and 676 nM, respectively.
Take `N#Cc1nc(-c2ccc(OCCO)c(C(F)(F)F)c2)cc2[nH]cnc12`: the inhibition result in data set [1] and in data set [5] was “inactive” in each case. For the same molecule, the IC50 was 2820 nM against Cathepsin K and 145 nM on Cathepsin S [8].
Consider `CCOc1ccc(-c2cccc(C#N)n2)cc1C(F)(F)F`, for which the inhibition entry in [1] and in data set [5] was “inactive” each time.
Take `CC(=O)Nc1ccc(-c2cc3[nH]cnc3c(C#N)n2)cc1C(F)(F)F`: the inhibition entry in [1] and in data set [5] was “inactive” in each case. The IC50 at Cathepsin K is more than 10000 nM; against Cathepsin S [8], 3240 nM.
Take `CCCOc1ccc(-c2cc3[nH]cnc3c(C#N)n2)cc1C(F)(F)F`: the inhibition result in data set [1] and in [5] was “inactive” throughout.
Regarding `Cc1cccc(CCOc2ccc(-c3cc4c(ncn4C)c(C#N)n3)cc2C(F)(F)F)n1`, the inhibition entry in data set [1] and in data set [5] was “inactive” throughout. Besides, the half-maximal inhibitory concentration (IC50) was 2040 nM at Cathepsin K, 267 nM on Cathepsin S [6] and 11 nM at Cathepsin S [8].
For `CN1CCN(CCCOc2ccc(-c3cccc(C#N)n3)cc2C(F)(F)F)CC1`, the half-life (in general, the time needed for the level to fall by half in the phase considered) at 1240 µM in data set [9] is more than 100 h.
Regarding `Cn1cnc2c(C#N)nc(-c3ccc(OCc4cccnc4)c(C(F)(F)F)c3)cc21`, the inhibition entry in [1] and in data set [5] was “inactive” in each case. For the same molecule, the IC50 is more than 10000 nM on Cathepsin K and 12.6 nM against Cathepsin S [8].
Take `CN1CCN(CCCOc2ccc(-c3ccnc(C#N)n3)cc2C(F)(F)F)CC1`: the half-life at 1150 µM in data set [10] is less than 0.25 h.
As to `Cn1cnc2c(C#N)nc(-c3ccc(OCc4ccncc4)c(C(F)(F)F)c3)cc21`, the inhibition entry in data set [1] and in [5] was “inactive” throughout. The 50% inhibitory concentration (IC50) is more than 10000 nM at Cathepsin K and 10 nM against Cathepsin S [8].
Consider `CCOc1ccc(-c2cc3c(ncn3C)c(C#N)n2)cc1C(F)(F)F`, for which the inhibition entry in data set [1] and in data set [5] was “inactive” in each case. Besides, the IC50 against Cathepsin K was found to be 1260 nM; against Cathepsin S [8], 40 nM.
For `Cn1cnc2c(C#N)nc(-c3ccc(CCCO)c(C(F)(F)F)c3)cc21`, the inhibition entry in data set [1] and in data set [5] was “inactive” each time. For the same molecule, the results for the IC50 against Cathepsin K and at Cathepsin S [8] were 1070 nM and 24 nM, respectively.
As for `Cn1cnc2c(C#N)nc(-c3ccc(OCCC4CCNCC4)c(C(F)(F)F)c3)cc21`, the inhibition result in data set [1] and in data set [5] was “inactive” throughout. The values for the half-maximal inhibitory concentration (IC50) at Cathepsin K, at Cathepsin S [6] and against Cathepsin S [8] were 178 nM, 9 nM and 8.3 nM, respectively.
Turning to `N#Cc1nc(-c2cccc(C(F)(F)F)c2)cc2nc[nH]c12`, the figures for the half-maximal inhibitory concentration (IC50) against Cathepsin K and at Cathepsin S [8] were 2000 nM and 1050 nM, respectively.
As to `N#Cc1nc(-c2cccc(C(F)(F)F)c2)cc2[nH]cnc12`, the inhibition result in data set [1] and in data set [5] was “inactive” each time.
On to `CN(C)CCOc1ccc(-c2cc3c(ncn3C)c(C#N)n2)cc1C(F)(F)F`, for which the inhibition entry in [1] and in data set [5] was “inactive” throughout. In addition, the 50% inhibitory concentration (IC50) against Cathepsin K came to 5890 nM; against Cathepsin S [8], 209 nM.
Take `CCOc1ccc(-c2cc3c(ncn3CCN(C)C)c(C#N)n2)cc1C(F)(F)F`: the IC50 is 447 nM at Cathepsin K, 854 nM on Cathepsin S [6] and 32 nM on Cathepsin S [8].
As for `CCOc1ccc(-c2cc3[nH]cnc3c(C#N)n2)cc1C(F)(F)F`, the inhibition result in data set [1] and in data set [5] was “inactive” in each case. Moreover, the concentration for half-maximal inhibition (IC50) at Cathepsin K worked out at 8310 nM; against Cathepsin S [8], 25 nM.
Turning to `Cn1ccc2c(C#N)nc(-c3ccc(OCCN4CCCC4=O)c(C(F)(F)F)c3)cc21`, the IC50 is more than 10000 nM against Cathepsin K and 661 nM against Cathepsin S [8].
Consider `CN(C)CCCOc1ccc(-c2cc3c(ncn3C)c(C#N)n2)cc1C(F)(F)F`, for which the inhibition entry in data set [1] and in data set [5] was “inactive” each time. In data set [2], the bioavailability was found to be 58%. For the same molecule, the Vd in data set [3] came out at 58 L/kg. The concentration for half-maximal inhibition (IC50) at Cathepsin S [4] stood at 2.6 nM; at Cathepsin K it was 776 nM; on Cathepsin S [6], 84 nM; against Cathepsin S [8], 41 nM. In data set [7], this molecule yielded a clearance of 10 mL/min/kg.
As to `CCNc1ccc(-c2cc3[nH]cnc3c(C#N)n2)cc1C(F)(F)F`, the inhibition entry in data set [1] and in data set [5] was “inactive” each time. Besides, the half-maximal inhibitory concentration (IC50) was more than 10000 nM against Cathepsin K and 105 nM against Cathepsin S [8].
As for `Cn1cnc2c(C#N)nc(-c3ccc(OCCCN4CCCC4)c(C(F)(F)F)c3)cc21`, the inhibition result in data set [1] and in data set [5] was “inactive” in each case. Also, the IC50 on Cathepsin K came to 871 nM; at Cathepsin S [6], 89 nM; at Cathepsin S [8], 28 nM.
As to `Cn1cnc2c(C#N)nc(-c3ccc(OCC4CCNCC4)c(C(F)(F)F)c3)cc21`, the inhibition entry in data set [1] and in [5] was “inactive” in each case. Besides, the values for the half-inhibitory concentration (IC50) on Cathepsin K and on Cathepsin S [8] were 240 nM and 14.1 nM, respectively.
For `N#Cc1nc(-c2ccc(OCCCO)c(C(F)(F)F)c2)cc2[nH]cnc12`, the inhibition entry in data set [1] and in data set [5] was “inactive” each time. Besides, the IC50 against Cathepsin K is 2690 nM; at Cathepsin S [8] it was 63 nM.
For the molecule `CCOc1ccc(-c2cc3c(ncn3CCCN(C)C)c(C#N)n2)cc1C(F)(F)F`, the IC50 came out at 270 nM on Cathepsin K, 260 nM at Cathepsin S [6] and 27 nM against Cathepsin S [8].
In the case of `Cn1cnc2c(C#N)nc(-c3ccc(OCCN4CCNC(=O)C4)c(C(F)(F)F)c3)cc21`, the inhibition entry in data set [1] and in data set [5] was “inactive” each time. Further, the figures for the IC50 against Cathepsin K and against Cathepsin S [8] were 1170 nM and 7.8 nM, respectively.
Take `CCOc1ccc(-c2cc3c(ncn3CCN3CCOCC3)c(C#N)n2)cc1C(F)(F)F`: the half-inhibitory concentration (IC50) amounted to 1660 nM at Cathepsin K, 10000 nM on Cathepsin S [6] and 37 nM at Cathepsin S [8].
For the molecule `CCOc1ccc(-c2cc3c(ncn3CCCN3CCOCC3)c(C#N)n2)cc1C(F)(F)F`, the IC50 against Cathepsin K was found to be 513 nM; at Cathepsin S [8], 35 nM.
As to `Cn1cnc2c(C#N)nc(-c3ccc(OCCN4CCCC4=O)c(C(F)(F)F)c3)cc21`, the inhibition result in data set [1] and in [5] was “inactive” each time. In addition, the IC50 against Cathepsin K worked out at 2510 nM; on Cathepsin S [6], 1420 nM; at Cathepsin S [8] it was 7.8 nM.
As for `CCOc1ccc(-c2nc(C#N)c3nc[nH]c3n2)cc1C(F)(F)F`, the inhibition entry in data set [1] and in data set [5] was “inactive” in each case.
For the molecule `COc1ccc(-c2cc3[nH]cnc3c(C#N)n2)cc1C(F)(F)F`, the inhibition result in data set [1] and in [5] was “inactive” each time. Besides, the IC50 against Cathepsin K worked out at 8510 nM; on Cathepsin S [8], 339 nM.
Consider `CCCOc1ccc(-c2cc3nc[nH]c3c(C#N)n2)cc1C(F)(F)F`, for which the 50% inhibitory concentration (IC50) at Cathepsin K was 7760 nM; against Cathepsin S [8], 200 nM.
Take `Cn1cnc2c(C#N)nc(-c3ccc(CCO)c(C(F)(F)F)c3)cc21`: the inhibition entry in data set [1] and in [5] was “inactive” in each case. Moreover, the IC50 came to 3160 nM on Cathepsin K and 71 nM against Cathepsin S [8].
Take `CN1CCN(CCCOc2ccc(-c3cc4c(ncn4C)c(C#N)n3)cc2C(F)(F)F)CC1`: the inhibition result in [1] and in data set [5] was “inactive” in each case. Also, the IC50 was found to be 468 nM against Cathepsin K and 106 nM at Cathepsin S [6].
